Marks after values point to notes of the source that are not given here.
Assays:
[1] = test system: dextran sodium sulfate (DSS)-induced colitis; assay: DSS-induced colitis in C57BL/6J mice: disease activity, macroscopic scores, histopathology; format: in vivo
Description: Six to eight week old C57BL/6J mice (n=20) and were housed at the animal facilities at Virginia Polytechnic Institute and State University in a room maintained at 75° F., with a 12:12 h light-dark cycle starting from 6:00 AM. All experimental procedures were approved by the Institutional Animal Care and Use Committee of Virginia Polytechnic Institute and State University and met or exceeded requirements of the Public Health Service/National Institutes of Health and the Animal Welfare Act. C57BL/6J mice were fed AIN-93G-based diets with or without 100 mg/kg of a racemic ABA mixture for 35 days prior to induction of colitis with water containing 2.5% dextran sodium sulfate (DSS), […] (ICN Biomedicals, Aurora, Ohio). After the DSS challenge mice were weighed on a daily basis and examined for clinical signs of disease associated with colitis (i.e., perianal soiling, rectal bleeding, diarrhea, and piloerection). For the DSS challenge, the disease activity indices and rectal bleeding scores were calculated using a modification of a previously published compounded clinical score (50). Briefly, the disease activity index consisted of a scoring for diarrhea and lethargy (0-3), whereas rectal bleeding consisted of a visual observation of blood in feces and the perianal area (0-4). Mice in the DSS study were euthanized on day 7 of the DSS challenge. On day 7 blood mice were euthanized by CO2 asphyxiation and blood was withdrawn from the heart. Spleen and mesenteric lymph nodes (MLN) were scored based on size and macroscopic inflammatory lesions (0-3), excised, and then crushed to produce single-cell suspensions for flow cytometry.
Colonic sections were fixed in 10% buffered neutral formalin, later embedded in paraffin, and then sectioned (5 μm) and stained with H&E stain for histologic examination. Colons were graded with a compounded histologic score including the extent of (1) lymphocyte infiltration, (2) mucosal thickening, and (3) epithelial cell erosion. The sections were graded with a score of 0-4 for each of the previous categories and data were analyzed as a normalized compounded score.

[2] = Body weight, organ weights and feed intake of db/db mice; format: in vivo
Description: Experiment 1: mice (n=25) were fed high-fat (>40% energy from fat), isocaloric, isonitrogenous diets containing 0, 100, 200, 400, and 800 mg of a racemic (±) ABA mixture/kg diet for 36 days (Table 1) (Sigma). These doses were chosen based on the standard concentrations of TZDs utilized in the treatment of NIDDM. The mice were weighed and their food intake was recorded daily. On day 36 of the study fasted mice (12 h) were bled through the caudal vein and fasting blood glucose concentrations were determined. To investigate the ability of ABA to normalize glucose concentrations, an intraperitoneal glucose tolerance test (IPGTT) was performed on day 36 on the fasted mice. Briefly, mice were bled at 0, 10, 25, and 45 minutes following the administration of glucose (2 g/kg) for measurement of plasma glucose levels. […] Weights were recorded for WAT, interscapular brown adipose tissue (BAT), and liver.
Experiment 2: The ABA dose utilized (100 mg ABA/kg) was based on the results obtained from the IPGTT of the ABA titration study (i.e., Experiment 1). Mice in experiment 2 were fed high-fat diets containing 0 or 100 mg ABA/kg for 36 days. Their body weights and food intake was recorded daily, and blood was collected on day 36 of the study during an IPGTT. This IPGTT included one additional 100 minutes time point. […] Weights were recorded for abdominal WAT, BAT, and liver.

[3] = test system: adipose tissue macrophages (ATM); assay: Flow cytometry of adipose tissue macrophage subsets in stromal-vascular fraction of WAT, db/db mice; format: in vivo
[4] = all studies conducted with ABA; cited from earlier work
[5] = test system: CD8+ T cells; assay: CFSE flow cytometry proliferation assay, Concanavalin A-stimulated splenocytes, CD8+ T cells; format: cell-based, mice; conditions: 100 mg ABA/kg diet; first 4 generations
Description: Single cell suspensions were prepared from the spleen by gently crushing the spleens excised during the necropsy procedure between the frosted ends of microscope glass slides previously autoclaved. Tissue debris were removed by settling, erythrocytes were eliminated by hypotonic lysis and cells finally resuspended in complete RPMI (cRPMI, 10% fetal bovine serum (Hyclone, Logan, Utah), 25 mM HEPES buffer (Sigma, St. Louis, Mo.), 100 units/ml penicillin (Sigma), […] streptomycin (Sigma), 1 mM sodium pyruvate (Sigma), 1 mM nonessential aminoacids (Sigma), and 2 mM essential amino acids (Mediatech), and enumerated with a Coulter Z1 Single Particle Counter (Beckman Coulter, Miami, Fla.). […]
Splenocytes at 10^6 cells/ml were seeded in 96-well, round-bottom microtiter plates and incubated incomplete RPMI with or without Concanavalin A (Sigma) at 2.5 μg/ml. […] Following 2 washes in Fluorescence activated cell sorting (FACS) buffer, cells were incubated with streptavidin-PeCy5 (Pharmingen, San Diego, Calif.) for the biotinylated anti-mouse CD4 antibody. Cells were analyzed by 3-color flow cytometry (CFSE, phycoerythrin and PeCy5) in a FACScalibur instrument (Becton Dickinson). Ten thousand events were acquired, and data were analyzed using the Cell Quest Pro™ software (Becton Dickinson). Proliferation was assessed by the decrease in fluorescent intensity of CFSE staining. […]

CC1=CC(=O)CC(C)(C)C1(O)/C=C/C(C)=C\C(=O)O (racemic) [ABA, abscisic acid]
disease activity index (DAI) ([1]; 100 mg/kg diet 35 days, then 7 days 2.5% DSS): significantly reduced disease activity index
body weight loss ([1]; DSS challenge, ABA vs control): no significant differences in body weight loss
Epithelial erosion ([1]; colon histology, DSS colitis): significantly reduced
leukocyte infiltration ([1]; colon histology, DSS colitis): significantly reduced
mucosal thickening ([1]; colon histology, DSS colitis): significantly reduced
colonic inflammation, macroscopic score ([1]; day 7 of DSS): significantly reduced colonic inflammation
spleen or MLN macroscopic score ([1]; day 7 of DSS): no significant effect on the spleen or MLN
final body weight less than control mice ([2]; 41.34 g vs 43.54 g, not statistically significant): approximately 2.2 grams
Total feed intake ([2]; between treatment groups): did not differ significantly
Final body weight ([2]; db/db mice, 100 mg ABA/kg diet, day 36): no significant differences in body weights
F4/80hi CD11b+CCR2+ ATM subset ([3]; P=0.006): reduction
F4/80lo ATM ([3]; db/db mice): no effect
F4/80hi macrophage infiltration into WAT ([3]; db/db mice, P=0.05): significantly suppressed
amount of F4/80 on surface of F4/80hi macrophages (MFI) ([3]; vs control diet): significantly lower
side-effects [4]: no side-effects observed
CD8+ T cells RPI1 [5]: 5.261*

Reference: patent US8367727B2, “Method of using abscisic acid to treat diseases and disorders” (priority 2006, dated 2013)
